Experiment: xn = mol fraction of the nth substance listed

CC(=O)[O-].CC[N+]1(C)CCOCC1 + O
viscosity [mPa·s], 100 kPa
Conditions	x1 = 0.0567	x1 = 0.0886	x1 = 0.1794	x1 = 0.253	x1 = 0.3334	x1 = 0.4341	x1 = 0.4928	x1 = 0.5718	x1 = 0.6609	x1 = 0.7155
298.15 K	3.5	7.01	36.6	89.4	203	541	671	1472	–	–
303.15 K	3.03	5.93	31.9	66	143	347	503	1093	–	–
308.15 K	2.65	5.05	27	50	104	228	383	795	1969	–
313.15 K	2.34	4.33	22.5	38.7	78.1	150	278	566	1355	2266
318.15 K	2.08	3.73	18.2	30.7	59.8	123	198	396	908	1518
323.15 K	1.86	3.25	15	24.8	46.8	92.9	144	276	599	971

COCCOCCOCCO + O
101.33 kPa
Conditions	viscosity [mPa·s]
298.15 K, x1 = 0.0497	2.531
298.15 K, x1 = 0.0989	4.964
298.15 K, x1 = 0.1415	6.443
298.15 K, x1 = 0.2035	7.869
298.15 K, x1 = 0.3069	8.456
298.15 K, x1 = 0.4204	7.901
298.15 K, x1 = 0.5037	7.472
298.15 K, x1 = 0.6109	6.897
298.15 K, x1 = 0.7651	6.754
298.15 K, x1 = 0.84	6.754
298.15 K, x1 = 0.8917	6.594
308.15 K, x1 = 0.0226	1.317
308.15 K, x1 = 0.0554	2.514
308.15 K, x1 = 0.0964	3.669
308.15 K, x1 = 0.1278	4.537
308.15 K, x1 = 0.1726	5.437
308.15 K, x1 = 0.2157	5.977
308.15 K, x1 = 0.2434	6.176
308.15 K, x1 = 0.302	6.38
308.15 K, x1 = 0.3364	6.428
308.15 K, x1 = 0.3687	6.422
308.15 K, x1 = 0.3952	6.376
308.15 K, x1 = 0.42	6.331
308.15 K, x1 = 0.4712	6.215
308.15 K, x1 = 0.5057	6.123
308.15 K, x1 = 0.5471	6.022
308.15 K, x1 = 0.6208	5.83
308.15 K, x1 = 0.6681	5.716
308.15 K, x1 = 0.6996	5.651
308.15 K, x1 = 0.775	5.463
308.15 K, x1 = 0.8279	5.355
308.15 K, x1 = 0.8744	5.266
308.15 K, x1 = 0.9499	5.134
313.15 K, x1 = 0.0497	1.632
313.15 K, x1 = 0.0989	2.994
313.15 K, x1 = 0.1415	3.785
313.15 K, x1 = 0.2035	4.556
313.15 K, x1 = 0.3069	4.963
313.15 K, x1 = 0.4204	4.933
313.15 K, x1 = 0.5037	4.812
313.15 K, x1 = 0.6109	4.728
313.15 K, x1 = 0.7651	4.394
313.15 K, x1 = 0.84	4.295
313.15 K, x1 = 0.8917	4.236
323.15 K, x1 = 0.0497	1.3
323.15 K, x1 = 0.0989	2.266
323.15 K, x1 = 0.1415	2.812
323.15 K, x1 = 0.2035	3.375
323.15 K, x1 = 0.3069	3.689
323.15 K, x1 = 0.4204	3.709
323.15 K, x1 = 0.5037	3.647
323.15 K, x1 = 0.6109	3.566
323.15 K, x1 = 0.7651	3.428
323.15 K, x1 = 0.84	3.352
323.15 K, x1 = 0.8917	3.307

O=S(=O)([O-])[O-].[Ni+2] + O
viscosity [mPa·s], 101 kPa
Conditions	x1 = 0.00332	x1 = 0.0106	x1 = 0.01799	x1 = 0.02625	x1 = 0.0309	x1 = 0.04249
298.15 K	1.04	1.32	1.82	2.66	3.13	5.21
313.15 K	0.762	0.934	1.283	1.83	2.145	3.462

OC[C@H]1O[C@@H]2O[C@H]3[C@H](O)[C@@H](O)[C@@H](O[C@H]4[C@H](O)[C@@H](O)[C@@H](O[C@H]5[C@H](O)[C@@H](O)[C@@H](O[C@H]6[C@H](O)[C@@H](O)[C@@H](O[C@H]7[C@H](O)[C@@H](O)[C@@H](O[C@H]8[C@H](O)[C@@H](O)[C@@H](O[C@H]1[C@H](O)[C@H]2O)O[C@@H]8CO)O[C@@H]7CO)O[C@@H]6CO)O[C@@H]5CO)O[C@@H]4CO)O[C@@H]3CO + O
viscosity [mPa·s], 101 kPa
Conditions	298.15 K	310.15 K
x1 = 7.87e-06	0.8909	0.6934
x1 = 8.39e-06	0.891	0.6935
x1 = 1.613e-05	0.8917	0.6944
x1 = 1.679e-05	0.8918	0.6945
x1 = 3.14e-05	0.8931	0.6962
x1 = 6.268e-05	0.8961	0.6998
x1 = 6.666e-05	0.8964	0.7003
x1 = 0.0001254	0.9019	0.7071
x1 = 0.0001309	0.9024	0.7078
x1 = 0.0001573	0.9049	0.7109
x1 = 0.0001654	0.9057	0.7118
x1 = 0.0001906	0.908	0.7148
x1 = 0.0002383	0.9125	0.7203

Source: the CheMixHub viscosity set
